One assay has as its system pubic symphysis. In words: Mouse pubic symphysis assay. The following applies: in vivo. The protocol: The concentration of relaxin was determined by amino acid analysis.
In the next assay the test system is rat isolated heart. The assay is described as follows: Chronotropy and inotropy in Langendorff rat isolated heart. To be noted: for maximum beating rate: 83 pMol. The protocol:
Male Sprague-Dawley rats weighing 300-350 g (Charles River, Portage, Ind., USA) were anesthetized with 60 mg/kg pentobarbital sodium (Fort Dodge Laboratories, Inc., Fort Dodge, Iowa, USA) intraperitoneally. Following thoracotomy, the hearts were removed and placed into 4° C. […] Any associated lung and thymic tissue were trimmed off and the ascending aorta cannulated. The heart was then perfused at 10 ml/min with Krebs-Henseleit solution at 37° C. The perfusion pressure was constantly monitored. A small incision was made in the left atrium and a water-filled balloon (Hugo Sachs Electronik, March-Hugstetten, Germany) connected to a pressure transducer (Gould Electronics, Valley View, Ohio, USA) was placed into the left ventricle for the measurement of left ventricular developed pressure (LVDP). From this pressure, recording heart rate was electronically derived on a Grass polygraph (Quincy, Mass., USA).
In six experiments, after a 15-20 minutes stabilization period, the atria were removed. The heart rate was then allowed to stabilize at its new rate before the administration of relaxin. In three experiments, the atria were left intact.
Relaxin was administered as 50 μl bolus injections into the perfusion fluid immediately prior to entering the heart. Cumulative dose-response curves were constructed using human recombinant H2 relaxin (Genentech, Inc. South San Francisco, Calif., USA). […] Serial dilutions of both drugs were made using 0.9% (w/v) saline solution.
Statistical significance was determined by a two-tailed Student's unpaired t-test and P<0.005 was taken as significant.

The target in assay [1] is T1, relaxin binding sites in the rat uterus (Rattus norvegicus, UniProt Q6R6I6).
T1 construct: The frozen tissues were sectioned to 16 μm thickness; from tissue; host or cells: rat uterus (uterine horn, cervix) frozen sections
T1 sequence (Q6R6I6 1-758): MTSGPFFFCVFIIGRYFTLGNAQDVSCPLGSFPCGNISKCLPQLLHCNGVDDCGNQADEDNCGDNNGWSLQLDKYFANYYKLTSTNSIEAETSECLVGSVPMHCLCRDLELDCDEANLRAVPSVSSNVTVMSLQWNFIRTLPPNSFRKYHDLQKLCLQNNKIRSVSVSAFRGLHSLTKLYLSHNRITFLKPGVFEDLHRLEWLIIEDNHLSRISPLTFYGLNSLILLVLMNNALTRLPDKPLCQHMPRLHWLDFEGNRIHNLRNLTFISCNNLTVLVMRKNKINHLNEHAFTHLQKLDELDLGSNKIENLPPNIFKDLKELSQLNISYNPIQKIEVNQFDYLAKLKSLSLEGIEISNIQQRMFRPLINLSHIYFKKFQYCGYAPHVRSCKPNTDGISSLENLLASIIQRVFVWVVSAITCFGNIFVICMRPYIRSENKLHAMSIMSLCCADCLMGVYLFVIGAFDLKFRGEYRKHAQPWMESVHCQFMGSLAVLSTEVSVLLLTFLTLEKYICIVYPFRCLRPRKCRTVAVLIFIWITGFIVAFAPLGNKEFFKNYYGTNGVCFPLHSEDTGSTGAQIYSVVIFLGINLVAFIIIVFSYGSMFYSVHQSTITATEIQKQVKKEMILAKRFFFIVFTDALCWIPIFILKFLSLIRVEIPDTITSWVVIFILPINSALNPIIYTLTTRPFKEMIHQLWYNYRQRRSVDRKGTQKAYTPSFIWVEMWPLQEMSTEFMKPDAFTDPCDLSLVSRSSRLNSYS
The assay is described as follows: Displacement of 32P-relaxin binding in rat uterus tissue sections (autoradiography). The protocol: Ten-week-old normal male and cyclic female Sprague-Dawley rats (Charles River Breeding Laboratories, Wilmonton, Mass.) were used for binding specificity and binding displacement experiments. These were given food and water ad libidium and housed in a room with the ambient temperature controlled around 21° C.
The frozen tissues were sectioned to 16 μm thickness using a Reichert-Jung Model 2800 Frigocut cryostat (Cambridge Instruments). Tissue sections were fixed onto gelatin/chromium potassium sulfate treated microscope slides by warming, and immediately refrozen and stored at -80° C. overnight or longer. […]
Regions of binding were determined by overlaying the autoradiographs with adjacent sections counterstained with hematoxylin-eosin. […] Pseudocolor reconstruction and quantitative analysis of ^32 P-relaxin binding autoradiographs were performed with a RAS-3000 image analysis system (Amersham). The OD or radioactivities (cpm) of bound ^32 P relaxin (maximum binding in a particular region) were quantified by computerized densitometry based on parallel sets of ^32 P-relaxin standards (ranging from 50 to 2000 cpm) blotted onto nitrocellulose membranes (Trans-Blot SF, Bio-Rad, Richmond, Calif.). […] The dissociation constant (Kd) for relaxin was calculated by the method of Cheng and Prusoff [Biochem. Pharmacol. 22, 3099-3108 (1973)].

Assay [2] has as its system rat isolated atrial preparations. To be noted: cited from earlier work.
Assay [3] in a line: Intravenous injection of relaxin, earlier experiments. The class given is in vivo.

As for relaxin, in the assay on pubic symphysis, the biological activity result was “biologically active”. For the same substance, in the assay on rat isolated heart, the “transient increases in coronary perfusion pressure” value is recorded as “not seen”. Moreover, the “effect on LVDP” value with rat isolated heart (atria removed (LVDP 143±9 mmHg), 0.83 pMol) is recorded as “significantly reduced the LVDP to control levels”. For the same substance, the maximum beating rate with rat isolated heart (atria removed, basal 139±15 bpm) is given as 268±7 bpm. In addition, in the assay on rat isolated heart (intact heart preparations, basal 270±7 bpm), the maximum beating rate was 412±18 bpm. Also, the inotropic effect entry with rat isolated heart (isolated heart preparations) was “no positive inotropic effects”. Moreover, in the assay with rat isolated heart (relaxin: single bolus administration of 830 pMol), the “duration of chronotropic effect” value is given as “up to two hours”. Further, the Kd in assay [1] (rat uterus (uterine horn, cervix), displacement of 100 pM 32P-relaxin, mean±S.E. of two regions, read-out: dissociation constant (Kd)) worked out at 1.3 ± 0.22 nM. Besides, in assay [1] (uterus, increasing concentrations of unlabeled relaxin), the “extent of displacement of 32P-relaxin binding” value was “partial displacement”. For the same substance, the “chronotropic and inotropic effects” value in assay [2] is “positive chronotropic and inotropic effects”. Besides, in assay [3], the heart rate result is reported as “small but consistent increase in heart rate”; the “systolic and diastolic pressure” value is “decrease in systolic and diastolic pressure”.

These data come from patent publication US5478807A, “Use of relaxin in the treatment of bradycardia” (Genentech, Inc., priority 1992, dated 1995).
